Article PMC4269550, “Lead Optimization of a Pyrazole Sulfonamide Series of Trypanosoma bruceiN-Myristoyltransferase Inhibitors: Identification and Evaluation of CNS Penetrant Compounds as Potential Treatments for Stage 2 Human African Trypanosomiasis” (Journal of Medicinal Chemistry, 2014)
Where “and” joins values, the source holds several entries; their conditions need not be identical. Equal values may be shown once. Read-outs that look alike come from different tables or passages of the source.

How the values were obtained:
[1] = Intrinsic clearance (Cli), mouse liver microsomes; format: in vitro ADME; settings: for Cli: mouse microsomes
[2] = in vitro; format: cell-based, human; settings: human
[3] = system: HsNMT; format: biochemical, human; settings: selectivity

Row | Compound | Cli (mouse) ([1]; mouse liver microsomes) [mL min^–1 g^–1] | further results
1 | Cc1nn(C)c(C)c1NS(=O)(=O)c1c(Cl)cc(CCCC2CCN(C)CC2)cc1Cl [compound 16] | 4.3 | Cli [1]: 4.3 mL/min/g
2 | Cc1nn(C)c(C)c1NS(=O)(=O)c1ccc(CCCN2CCN(C)CC2)cc1 [compound 15] | – | EC50 at 69 h ([2]; MRC-5 EC50): > 50 µM
3 | Cc1nn(C)c(C)c1NS(=O)(=O)c1c(Cl)cc(CCCN2CCN(C)CC2)cc1Cl [compound 14] | 1.7 | Cli [1]: 1.7 mL/min/g
4 | Cc1nn(C)c(C)c1N(C)S(=O)(=O)c1ccc(-c2cccc(CN3CCN(C)CC3)c2)cc1 [compound 32] | 9.7 | –
5 | Cc1nn(C)c(C)c1N(C(F)F)S(=O)(=O)c1c(Cl)cc(CCCOC[C@@H]2CCCN2C)cc1Cl [compound 49] | 8.7 | –
6 | Cc1nn(C)c(C)c1N(C)[S+](=O)([O-])c1ccc(-c2ccnc(N3CCNCC3)c2)cc1 [compound 30] | 1.3 | –
7 | Cc1nn(C)c(C)c1N(C(F)F)S(=O)(=O)c1c(Cl)cc(CCCOC[C@@H]2CCCCN2C)cc1Cl [compound 50] | 9.8 | –
8 | Cc1nn(C)c(C)c1N(C)[S+](=O)([O-])c1c(Cl)cc(CCCCCCn2ccnc2)cc1Cl [compound 36] | 3.0 | EC50 ([2]; MRC-5 EC50): 7.8 µM
9 | Cc1nn(C)c(C)c1N(C(F)F)[S+](=O)([O-])c1c(Cl)cc(CCCCC2CCNCC2)cc1Cl [compound 45] | 1.0 | –
10 | Cc1nn(C)c(C)c1N(C)[S+](=O)([O-])c1c(Cl)cc(-c2ccnc(N3CCNCC3)c2)cc1Cl [compound 29] | 17 | –
11 | Cc1nn(C)c(C)c1N(CC(F)F)S(=O)(=O)c1c(Cl)cc(CCCC2CCN(C)CC2)cc1Cl [compound 41] | 2.2 | Cli [1]: 2.2 mL/min/g
12 | Cc1nn(C)c(C)c1NS(=O)(=O)c1c(Cl)cc(C#CCN2CCN(C)CC2)cc1Cl [compound 13] | – | EC50 at 69 h ([2]; MRC-5 EC50): > 50 µM
13 | Cc1nn(C)c(C)c1N(C)S(=O)(=O)c1ccc(CCCC2CCN(C)CC2)cc1 [compound 38] | 3.7 | EC50 ([2]; read-out: MRC-5 EC50): 42 µM
14 | Cc1nn(C)c(C)c1N(C(F)F)[S+](=O)([O-])c1c(Cl)cc(CCCOC2CCN(C)CC2)cc1Cl [compound 47] | 3.7 | –
15 | Cc1nn(C)c(C)c1NS(=O)(=O)c1c(Cl)cc(Br)cc1Cl [compound 7, 4-bromo-2,6-dichloro-N-(1,3,5-trimethyl-1H-pyrazol-4-yl)-benzenesulfonamide] | 14 | EC50 at 69 h [2]: > 50 µM
16 | Cc1nn(C)c(C)c1N(C(F)F)[S+](=O)([O-])c1c(Cl)cc(CCCC2CCNCC2)cc1Cl [compound 43] | 0.8 | –
17 | Cc1nn(C)c(C)c1NS(=O)(=O)c1ccc(-c2ccnc(N3CCNCC3)c2)cc1F [compound 58] | – | EC50 ([2]; read-out: MRC-5 EC50): 0.53 µM; Cli (mouse) ([1]; Table S1, unit not given): < 0.5
18 | Cc1nn(C)c(C)c1NS(=O)(=O)c1ccc(CCCC2CCNCC2)cc1 [compound 19] | – | EC50 at 69 h ([2]; MRC-5 EC50): > 50 µM
19 | Cc1nn(C)c(C)c1N(C(F)F)S(=O)(=O)c1c(Cl)cc(CCCCCCN(C)C)cc1Cl [compound 48] | 3.7 | –
20 | Cc1nn(C)c(C)c1N(C(F)F)S(=O)(=O)c1c(Cl)cc(CCCOC[C@H]2CCCCN2C)cc1Cl [compound 52] | 14.2 | –
21 | Cc1nn(C)c(C)c1N(C)S(=O)(=O)c1c(Cl)cc(CCCCCn2ccnc2)cc1Cl [compound 35] | 2.0 | –
22 | Cc1nn(C)c(C)c1N(C(F)F)[S+](=O)([O-])c1c(Cl)cc(CCCN2CCN(C)CC2)cc1Cl [compound 44] | 4.2 | –
23 | CCN(C)CCCCCCc1cc(Cl)c(S(=O)(=O)N(c2c(C)nn(C)c2C)C(F)F)c(Cl)c1 [compound 83] | – | S = IC50 HsNMT/EC50 T. brucei [3]: 3 and 5
24 | Cc1nn(C)c(C)c1NS(=O)(=O)c1ccc(-c2cccc(CN3CCN(C)CC3)c2)cc1 [compound 31] | 1.2 | –
